Article PMC10733463, “Berberine-microbiota interplay: orchestrating gut health through modulation of the gut microbiota and metabolic transformation into bioactive metabolites” (Frontiers in Pharmacology, 2023)

Experiments:
[1] = UPLC-MS/MS quantification of berberine and metabolites in plasma; format: in vivo, Ross 308 broiler chickens; settings: lowest berberine supplementation level (0.1 g/kg feed)
From the text: The study was undertaken following the guidelines of the ethics committee of the Faculty of Veterinary Medicine and Bioscience Engineering, Ghent University, in accordance with the EU Directive 2010/63/EU. One-day-old Ross 308 male broilers were obtained from a local hatchery and housed in pens on wood shavings. They were allotted into 4 groups, with three replicate pens per group each housing 8 chickens. The animals were not vaccinated. Water and commercial starter feed (day 1–12, FARM 1 Mash, Country’s Best, Versele Laga, Deinze, Belgium) or grower (day 13–21, FARM 2 mash, Country’s Best, Versele Laga, Deinze, Belgium) were provided ad libitum. The control group received the standard non-supplemented diets, whereas the chickens in other groups were fed the same feed supplemented with 0.1, 0.5 or 1 g berberine/kg feed throughout the whole trial period. At day 21, 4 birds per pen were weighted then euthanized by sodium pentobarbital injection for sampling. Individual jejunal, ileal, caecal and colonic contents were stored at −20°C for microbiota composition analysis (16S rRNA gene sequencing). Additionally, ileal and caecal content samples were collected and stored at −20°C for berberine and berberine-derived metabolite quantification. Duodenal tissue samples were collected and fixed in 4% phosphate buffered formaldehyde for histological analysis. Blood samples were collected in heparin tubes and centrifuged at 524 g for 10 min to recover the plasma fraction, which was further mixed with 17 mg/mL L-ascorbic acid for dihydroberberine stabilization, and stored at −20°C for berberine and berberine-derived metabolite quantification.
The column temperature was maintained at 25°C. The autosampler temperature was set at 10°C.
A 137.5 µL plasma sample containing 17 mg/mL L-ascorbic acid was used for sample extraction. The ascorbic acid solution was added to prevent oxidation of dihydroberberine to berberine during sample storage ([Feng et al., 2015]). The plasma sample was transferred to an OstroTM 96 well-plate (25 mg) (Waters). Subsequently, 50 µL Milli-Q water and 25 µL of an internal standard solution containing 100 ng/mL of both berberine-d6 and tetrahydropalmatine were added. A 640 µL volume of 1% (v/v) formic acid solution in acetonitrile (1/3 ratio) was added, followed by gentle mixing. Vacuum was applied on the Ostro™ plate for 5 min and the eluate was collected in a 2 mL square 96-well collector plate. The sample was transferred in a glass tube and evaporated at 40°C under a gentle stream of nitrogen in a Pierce (Rockford, United States) Reacti-Therm III™ Heating Module and Reacti-Vap™ III Module. The dried sample extract was reconstituted in 500 µL Milli-Q water, followed by injection of a 5 µL sample aliquot onto the UPLC-MS/MS apparatus. Quantification was based on the ratio of the analyte peak area compared to the peak area of the internal standard berberine-d6.
Calibration standards and quality control samples were prepared as follows: 137.5 µL of blank plasma stabilized with 17 mg/mL L-ascorbic acid were supplemented with 25 µL mixed working solutions of berberine and metabolites (except dihydroberberine) at different levels, 25 µL of dihydroberberine working solution, stabilized with 17 mg/mL L-ascorbic acid, at different levels and 25 µL of an internal standard solution containing 100 ng/mL of both berberine-d6 and tetrahydropalmatine. The calibration curve was in the 0.1–100 ng/mL range, including 0.1, 0.5, 1, 2.5, 5, 10, 25, […], 50 and 100 ng/mL levels.
The UPLC-MS/MS analysis method for the quantification of berberine and berberine-derived metabolites both in plasma and ileal/caecal intestinal content was validated to the guidelines of the European Medicines Agency, i.e., of the Committee for Veterinary Medicinal Products (EMEA/CVMP/VICH/463202/2009) and of the Committee for Medicinal Products for Human Use (EMEA/CHMP/EWP/192217/20), and in accordance with the EU Directive 2002/657/EC. […]

T84 cells = test: Cell viability assay (neutral red uptake), T84; format: cell-based, human; settings: 0.1 µg berberine/mL medium
Procedure: Caco-2 cells (human intestinal epithelial cells) were cultured in MEM (Gibco, Paisley, United Kingdom) supplemented with 10% Fetal Bovine Serum (FBS), 1% L-glutamine (Gibco), 1% MEM NEAA (Gibco) and 1% penicillin/streptomycin (P/S) (Gibco). T84 cells (human intestinal epithelial cells) were cultured in 1:1 DMEM/F12 (Gibco) supplemented with 10% FBS, 1% L-glutamine and 1% P/S (37°C, 5% CO2). The neutral red uptake assay was employed to evaluate the potential cytotoxicity of berberine ([Repetto et al., 2008]). Briefly, Caco-2 and T84 were seeded at 2 × 10^5 cells/well and 5 × 10^4 cells/well respectively in 96-well plates (Greiner Bio-one, Frickenhausen, Germany) and cultivated for 24 h in antibiotic-free medium (treatment medium) for attachment. […] A 10-fold dilution of sodium dodecyl sulfate (Sigma-Aldrich), ranging from 10 mg/mL to 10^−6 mg/mL was used a positive control. Cells were washed with 200 µL pre-warmed HBSS(+) (Gibco) and then treated with 150 µL of Neutral Red medium, consisting of 1:80 Neutral Red solution 0.33% (Sigma-Aldrich)/treatment medium for 3 h. Cells were washed in 200 µL HBSS(+) and treated with 100 µL of Neutral Red Desorb solution, consisting of 1% glacial acetic acid (Merck, Darmstadt, Germany), 50% ethanol (95%, Chem-Lab, Zedelgem, Belgium) and 49% deionized water.

[2] = system: Blautia spp., A. butyraticus, E. limosum; test: Growth of bacteria in presence of increasing concentrations of berberine; format: cell-based; settings: 10 μg/mL berberine, M2GSC, anaerobic
From the text: Samples were collected and processed as described before.
Supplementary Figure S1 – Growth of bacteria in presence of increasing concentrations of berberine in M2GSC medium (μg/mL) under anaerobic conditions. Strains were further tested for their ability to metabolize berberine (Figure 14). Strains were selected according to OTUs which relative abundance was positively correlated to berberrubine or thalifendine levels, including Blautia spp. and A. butyraticus. E. limosum was included as it was expected to demethylate berberine due to previous literature (Possemiers et al., 2008; Rich et al., 2022). Overnight cultures were 1:1000 diluted in M2GSC medium supplemented with 0, 1, 10 or 100 µg/mL berberine and grown for 24 hours under anaerobic conditions. Absorbance data at 600 nm are expressed as the mean ± standard deviation (n = 3). *: p < 0.05; ***: p < 0.001.

Which Quantification in plasma [1] does the source give for COc1ccc2cc3[n+](cc2c1O)CCc1cc2c(cc1-3)OCO2 [Berberrubine, berberrubine chloride] here?
The Quantification in plasma was “could also not be quantified”.

Which Quantification in plasma [1] does the source give for COc1cc2c(cc1O)CC[n+]1cc3c(OC)c(OC)ccc3cc1-2 [Jatrorrhizine, Jatrorrhizine chloride] here?
The Quantification in plasma was “could also not be quantified”.

Which “Cytotoxicity (Neutral Red Uptake)” value (T84 cells) does the source give for COc1ccc2cc3[n+](cc2c1OC)CCc1cc2c(cc1-3)OCO2 [Berberine, Berberine chloride] here?
The value was “considered safe”.

And the “Growth of the tested bacteria” value [2]?
The value was “not significantly affected”.
